Experimental data: US20030170643A1, “Regulation of apoB treatment and drug screening for cardiovascular and metabolic disorders or syndromes” (priority 1999, published 2003)

Columns and labels:
Assay type in all cases: cell-based
rat hepatoma cells [1] = assay: Pulse-chase recovery of [35S]-apoB100 (apoB100 degradation) in rat hepatoma cells; conditions: co-treatment with DHA, FIG. 13A and 13B
Protocol: (§1) FIG. 13 illustrates that either an iron chelator (DFX) or lipid antioxidants block DHA-stimulated apoB degradation and reactive oxygen species (ROS) production. Rat hepatoma cells were plated in culture wells and pre-incubated in media containing either DHA or DHA with one of the indicated compounds. Radiolabeled methionine/cysteine was added to the culture media for 15 minutes, after which time, the culture media were replaced by fresh media identical in composition except that radiolabeled methionine/cysteine were replaced by unlabeled methionone/cysteine. The recovery of labeled apoB100 ([^35S]-apoB100) from the media and cell lysate was determined at the indicated time points (with time 0 being the point when the fresh media were applied to the cells) by immunoprecipitating apoB species with a rabbit polyclonal antibody to rat apoB, resuspending the immunoprecipitates, combining aliquots from cell lysate and media samples from each well, resolving the protein contents of the combined immunoprecipitates by SDS-polyacrylamide gel electrophoresis (SDS-PAGE), and exposing the resultant gels to X-ray film in order to visualize the labeled apoB bands. In panel A are shown representative signals for radiolabeled apoB100 in each of the treatment conditions. […] For each treatment, there were at least 2 wells/treatment for each time point and the entire experiment repeated. The signal intensities of the apoB100 bands were quantified by densitometry and the mean relative recoveries (the % of the 15 minute, or initial, value still remaining at 120 minutes) ±SEM are shown in panel B. Note that the visual impressions observable in panel A are confirmed by the quantitative analysis; i.e., there is a substantial increase in labeled apoB100 recovery with any of the co-treatments. In panel C, the ROS content of the cell lysates at the end of the experiment was measured by the standard TBARS assay (Stocks et al., 1974, Clin Sci Mol Med 47,215-222). Note that compared to control (BSA), DHA induced a large increase in TBARS, as expected because of its high content on unsaturated bonds.
FIG. 14 illustrates that DHA, but not saturated MA, induces apoB100 degradation in rat hepatoma cells. An experiment similar to the one described in FIG. 13 was performed, with the following changes: A) The immunoprecipitates from cell lysate and media samples were not combined, but separately analyzed. B) In addition to the 15 and 120 minute time points, apoB recovery was determined at 30 minutes. C) In addition to DHA, the effects of the fatty acid myristic (MA) were also tested because it has no unsaturated bonds and should not give rise to ROS.
FIG. 15 illustrates that AA stimulates apoB100 degradation and increases ROS. […] Note in the upper panel that the combined recovery (from two separate wells/time point) of radiolabeled apoB100 decreased from 15 to 120 minutes, indicating significant apoB100 degradation had occurred in the presence of AA. […] In addition to being a source of ROS, AA can also be converted by cyclooxygenase (COX) to bioactive prostaglandin compounds. We therefore repeated the experiment with AA but with co-treatment by the COX inhibitor aspirin.
To further explore the underlying mechanisms, rat hepatoma cells or primary hepatocytes were incubated with the Ω-3 fatty acid DHA complexed to BSA, while blocking candidate cellular mediators. […] There was, however, strong evidence against a role for calcium. Chelation of intracellular Ca^++ with BAPTA-AM, pharmacologic blockage of Ca^++ channels, depletion of the ER-calcium pool, and increasing Ca++ influx with an ionophore each had no effect. Because EGTA also chelates Fe^+++, and DHA is subject to Fe^+++-dependent peroxidation, the role of this lipid modification was examined. As shown in FIG. 13A and 13B, Desferroxamine (DFX), a chelator of Fe^+++, the antioxidant vitamin E (Vit E), and the synthetic antioxidant BHT, each inhibited DHA-stimulated apoB100 degradation by ˜60%.

rat hepatoma cells [2] = assay: TBARS assay of ROS in cell lysates of rat hepatoma cells; conditions: co-treatment with DHA, FIG. 13C
Protocol: as §1, with “bonds. […] FIG. 15 illustrates that AA stimulates apoB100 degradation and increases ROS. […] Note in the upper panel that the combined recovery (from two separate wells/time point) of radiolabeled apoB100 decreased from 15 to 120 minutes, indicating significant apoB100 degradation had occurred in the presence of AA. […] In addition to being a source of ROS, AA can also be converted by cyclooxygenase (COX) to bioactive prostaglandin compounds. We therefore repeated the experiment with AA but with co-treatment by the COX inhibitor aspirin.” for “bonds.”

rat primary hepatocytes [3] = assay: Basal apoB100 degradation (pulse-chase recovery) in rat primary hepatocytes; conditions: FIG. 16A
rat primary hepatocytes [4] = assay: TBARS assay of ROS in rat primary hepatocytes; conditions: FIG. 16B
rat primary hepatocytes [5] = assay: Nascent VLDL re-uptake: VLDL-apoprotein secretion with or without heparin
Protocol: FIG. 9 illustrates that DHA inhibits the secretion of newly synthesized VLDL-apoproteins even when re-uptake is blocked. Rat primary hepatocytes were treated as in FIG. 1, except that media in the indicated wells also was supplemented with heparin (10 mg/ml). Total labeled VLDL-apoproteins were determined as in FIG. 3. The results for the fatty acids are expressed relative to the corresponding result for BSA and are shown as mean ±SE (n=6).
To evaluate whether there were differential effects of fish oil fatty acids and OA on the re-uptake of newly synthesized VLDL, an experimental design identical to that described above was employed, except heparin (0.1 mg/ml or 10 mg/ml) was added to the treatment media to block LDL receptor-dependent and proteoglycan-mediated re-uptake (Williams, K. J., Fless, G. M., Petrie, K. A., Snyder, M. L., Brocia, R. W., and Swenson, T. L. (1992) J Biol Chem 267(19), 13284-92). Control experiments were performed showing that the flotation properties of VLDL were unchanged in the presence of heparin.
The concentration of heparin was 10 mg/ml, which blocks lipoprotein binding to both LDL receptors and HSPGs (Williams, K. J. et al. (1992) J Biol Chem 267(19), 13284-92, and citations therein). […] Thus, there is substantial re-uptake of nascent VLDL by primary hepatocytes in the presence of either fatty acid. […] Thus, re-uptake of newly exported apoB cannot explain the effect of Ω-3 fatty acids on lipoprotein secretion.

McArdle RH-7777 cells = assay: Secretion of labeled apoB and apoE by McArdle RH-7777 cells after MTP inhibition; conditions: rat hepatoma cells, 4 hr, MTP inhibitor
Protocol: FIG. 7 illustrates that inhibition of MTP reduces the secretion of newly synthesized apoB100 without affecting apoE. Rat McA hepatoma cells were incubated at 37 °C for 4 hr with [ ^35S]methionine in the absence (Control) or presence (MTPI) of an inhibitor of MTP activity. Equal aliquots of the conditioned media samples from duplicate wells were subjected to separate immunoprecipitations with anti-apoB or anti-apoE antiserum. For each well, the resulting pellets from the two immunoprecipitations were combined and analyzed by SDS-PAGE and fluorography.
To determine the differential effects of MTP inhibition on the secretion of labeled apoB and apoE, in some experiments, McArdle RH-7777 cells were pre-treated for 30 min with MTP inhibitor BMS-200150 ([…] dissolved in DMSO; (Jamil, H., Gordon, D. A., Eustice, D. C., Brooks, C. M., Dickson, J. K., Jr., Chen, Y., Ricci, B., Chu, C.-H., Harrity, T. W., Ciosek, C. P., Jr., Biller, S. A., Gregg, R. E., and Wetterau, J. R. (1996) Proc Natl Acad Sci USA 93, 11991-11995)) or DMSO alone (final concentration 0.5%) before adding radiolabel. The cells were further incubated for 4 hr and the conditioned media contents of apoB and apoE determined by immunoprecipitation and SDS-PAGE analysis as described above.

rat primary hepatocytes [6] = assay: Secretion of newly synthesized ([35S]methionine-labeled) VLDL-apoproteins by rat primary hepatocytes incubated with fatty acid/BSA complexes; conditions: fatty acid/BSA complexes (0.8 mM FA), VLDL fraction
Protocol: Cells were plated at a density of 2×10^6 cells/ml on 60-mm culture dishes (previously coated with poly-D-lysine) in modified M199 medium (M199, 1% fetal bovine serum [FBS], 1 mM nicotinamide, 0.1 nM insulin, 3 mg/ml choline, 1.1% L-glutamine, 1% BSA). After a four-hour attachment period, the medium was changed (modified M199 identical to the above except BSA was omitted and the concentration of FBS was raised to 10%). The next morning, cells were washed in serum-free medium three times, the experimental media added, and the cells incubated at 37° C. for 4-6 hours. The experimental medium consisted of serum-free RPMI containing the appropriate isotopes (see below) and fatty acids (FA) present at a final concentration of 0.8 mM complexed to BSA (FA:BSA molar ratio=5:1). The fatty acids used were oleic (OA), EPA, and DHA. Control medium was identical, except that BSA (0.16 mM) without fatty acids was present. For metabolic labeling of proteins, [^35S]methionine (70 uCi/ml) was included in the experimental media.
Following the 4-6 hour incubation period, the cell monolayer was washed, then solubilized in 0.1 M NaOH, and the cell protein determined by the Lowry method (Lowry, O. H., Rosebrough, N. J., Farr, A. L., and Randall, R. J. (1951) J Biol Chem 193, 265-75). Each 60 mm dish contained approximately 1-1.5 mg of cell protein. The secreted apoproteins were isolated from the medium either by ultracentrifugation or immunoprecipitation. To isolate the d<1.006 (VLDL) and 1.006<d<1.063 (IDL and LDL) g/ml density classes by centrifugation, sequential 20 hour runs at 48,000 rpm in a 50 Ti Beckman rotor at 4° C. were performed. After the first run at d=1.006, the upper VLDL layer was harvested and the density of the infranatant adjusted to 1.066 g/ml with solid KBr. After being overlaid with a KBr solution of density 1.063, the adjusted infranatant was re-centrifuged as before to isolate the IDL and LDL fractions. In some experiments, the HDL fraction (1.063<d<1.21) was isolated by sequential density centrifugation. Lipoprotein fractions were then dialyzed against 0.9% NaCl containing 10 mM unlabeled methionine, 0.2 mM PMSF, and 2 mM EDTA. Dialyzed lipoproteins were delipidated using 9 volumes of 100% isopropanol. Apoproteins were then collected by centrifugation in a Sorval HB-4 rotor at 10,000 rpm and 4° C. for 20 min, and dissolved in buffer (0.01 M phosphate, pH 7,1 % SDS, 10% glycerol), in preparation for electrophoresis.
To immunoprecipitate apoB or apoE from unfractionated conditioned medium, monospecific rabbit antiserum to rat apoB or apoE was used. Briefly, an aliquot of the medium was mixed with an equal volume of diluted antiserum (1:100 in PBS and 1% BSA) and incubated overnight at 4° C. Staph A was added in the form of immunoprecipitin, and the resultant precipitate containing the immune complexes was washed extensively, the staph A cells removed, and the isolated apoprotein dissolved in gel sample buffer (0.0625M tris/Cl, pH 6.8, 20% glycerol, 2% SDS). Electrophoretic separation of apoVLDL, apoIDL/LDL, and immunoprecipitates was accomplished using 3.5% acrylamide-18% glycerol gels as described (Maguire, G. F., Lee, M., and Connelly, P. W. (1989) J Lipid Res 30, 757-61). An aliquot of each sample was taken for scintillation counting, so that total radioactivity applied to each lane could be determined. Also, protein size standards were included in each gel.
After electrophoresis, the gels were stained, fixed, soaked in Enhance fluor solution, and dried following protocols supplied by the manufacturer. Dried gels were then exposed to X-ray film at −70° C. and signals on the resulting fluorograms were typically quantified by densitometry or phosphorimaging. Using the total radioactivity applied to each lane of the gel and the relative signal intensity of each band in that lane, the radioactivity associated with each apoprotein species was calculated. […]

For `CC(=O)N(O)CCCCCNC(=O)CCC(=O)N(O)CCCCCNC(=O)CCC(=O)N(O)CCCCCN` [DFX, desferrioxamine], the “inhibition of DHA-stimulated apoB100 degradation” value (rat hepatoma cells [1]) was about 60%, the “DHA-increased ROS, TBARS assay, with co-treatment” value (rat hepatoma cells [2]) was “reduced” and the “basal level of apoB degradation” value (rat primary hepatocytes [3]) was “essentially reversed”. The “ROS level (TBARS)” value (rat primary hepatocytes [4]) was “reduced”.
With heparin the “apoB output in the presence of either fatty acid” value (rat primary hepatocytes [5]; heparin 0.1 mg/ml) was “failed to increase” and the “net secretion of newly synthesized VLDL-apoproteins during treatment with either OA or DHA” value (rat primary hepatocytes [5]; heparin 10 mg/ml, P<0.01) was “approximately two-fold”.
In the case of `O=C1c2ccccc2CN1C1CCN(CCC(c2ccccc2)c2ccccc2)CC1` [BMS compound #200150], the “secretion of newly synthesized apoB100” value (McArdle RH-7777 cells) is reported as “almost completely abolished” and the “secretion of newly synthesized apoE” value (McArdle RH-7777 cells) is reported as “no significant effect”.
In the case of `CC/C=C\C/C=C\C/C=C\C/C=C\C/C=C\C/C=C\CCC(=O)O` [DHA, docosahexaenoic acid], the “secretion of newly synthesized VLDL-ApoB48, percentage of secretion observed with BSA alone” value (rat primary hepatocytes [6]) is reported as 39 ± 3 percentage, the “secretion of newly synthesized VLDL-ApoB100, percentage of secretion observed with BSA alone” value (rat primary hepatocytes [6]) is reported as 24 ± 3 percentage and the “secretion of newly synthesized VLDL-ApoE, percentage of secretion observed with BSA alone” value (rat primary hepatocytes [6]) is reported as 53 ± 2 percentage. For the same compound, the “secretion of VLDL apoproteins, % of the OA control” value (rat primary hepatocytes [5]; independent of heparin treatment (10 mg/ml)) was “approximately 50%”.
